According to patent US20250169495A1, “COMPOSITIONS AND METHODS FOR CONTROLLING DROSOPHILA FLIES” (Rutgers, The State University of New Jersey, priority 2023, published 2025):

Columns and labels:
[1] = Emission rate from polyethylene sachets, field cages; assay type: physicochemical; details: field cage; sachets weighed before and 3 days after deployment
Text: Twenty-four hours after deploying the sachets, 120 flies (approximately 60 males and 60 females) were released into each cage at 18:00 hrs (N=120 flies×4 treatments×4 replicates=1,920 total flies). To ensure even distribution within the cages, 30 flies were released at four equidistant points between the bushes. A pre-sampling of the berries, conducted before the flies were released, confirmed the absence of any infestation. Berries were then collected 1-, 2-, and 3-days post-treatment. From every other bush (starting at the focal bush) in the cage, 50 berries from the top half and 50 from the bottom half were collected into two separate 236.6 mL deli containers lined with two cotton pads. From each berry sample, a random subsample of 10 berries were examined and egg counts recorded before being returned to the original container. The blueberries were incubated on a light bench in the laboratory for up to two weeks, as previously described, and adult emergence was recorded. The sachets were weighed before deployment and 3 days after deployment to measure the emission rates of each compound. Finally, the emission rates of compounds in the semi-field and field cage studies were calculated by subtracting the final weight of the sachets from the initial weight and dividing by the time interval (24 h or 3 days). These rates were then compared across repellent treatments using ANOVA, with Tukey pairwise comparisons conducted when significant differences were found.

Drosophila suzukii = assay: Semi-field cage oviposition deterrence, potted blueberry bushes; assay type: in vivo; details: N=10; for fewer eggs laid in treated berries than in control berries: sachet 2.5 mL, 24 h
Protocol: Semi-field cage experiments were conducted from June until July to evaluate the oviposition deterrent effects of ethyl butanoate, ethyl (E)-but-2-enoate, and 2-pentylfuran against D. suzukii. These experiments are considered semi-field because they took place in an isolated open field surrounded by woods with potted plants inside outdoor cages. The cages were constructed using polyvinyl chloride (PVC) pipes (3.8 cm diameter) to construct 1.8 m×1.8 m×1.8 m frames. Screen tents (Lumite® screen portable field cages; BioQuip, CA, USA) were placed over the PVC frames, and large nails were used to secure the tents to the ground (FIG. 6A). Cages were spaced 10 m apart. To obtain blueberries for the experiment, prior to the start of the experiment, field-grown highbush blueberry (Vaccinium corymbosum L. var. ‘Bluecrop’) clusters were bagged early in the season with cloth bags when they were still green to prevent infestation from resident D. suzukii populations for use in the experiment. In addition, 80 3-to-4-year-old potted blueberry bushes were stripped of their berries and used for the experiment. On the day of testing, two bushes were placed in each cage (FIG. 6B). Each bush in the tent was surrounded by a metal tomato cage. The bagged blueberry fruit clusters in the field were clipped and brought inside the cages. Clusters of 10 berries were created and placed in water picks. Five berry clusters were distributed randomly and evenly on each tomato cage at different heights using green twist ties (FIG. 6B). The sachets used for the treatments were prepared according to the methods described by Gale et al. (2024). They were constructed from 8 cm strips of polyethylene tubing (5.1 cm width, 2 MIL thickness; ULINE, Pleasant Prairie, WI, USA) and polyester felt (Grainger, Lake Forest, IL, USA). One end of the polyethylene tubing was sealed with an impulse sealer. A 5 cm strip of felt was placed inside the sachet's open end, and a 2.5 mL aliquot of each treatment was pipetted onto the felt. The open end was then sealed shut with the impulse sealer, entirely sealing the saturated felt. A hole was punched at the top of each sachet, away from the treatment area to avoid damaging the sealed section, and green twist ties were used to hang the sachets in the center of a bush (FIG. 6B). Before loading the sachets, the weights of the empty sachets were taken. The sachets were weighed again directly after loading with the compounds and then a final time after the 24-hour test period to measure the emission rates of each volatile. In each cage, one of the bushes contained a sachet with the test volatile, while the other contained a blank sachet (control). Sachets were hung in the bushes 30 minutes prior to the start of experiments. Choice tests included: 1) control versus control; 2) control versus ethyl butanoate; […]) control versus ethyl (E)-but-2-enoate; and 4) control versus 2-pentylfuran. Fifty flies (1:1 male: female) were released in each cage at 18:00 hrs. After 24 hours, the berry clusters were collected and placed in 118 mL plastic cups. Berries were inspected under a dissection microscope for the number of eggs laid and were then incubated in 236.6 mL (8-oz) deli containers lined with two cotton pads on a laboratory bench at 22±2° C. and 55±5% relative humidity for two weeks to monitor for adult emergence. The study was replicated 10 times for each choice combination (N=4 choice combinations×2 bushes each×10 replicates=total of 80 bushes; N=50 flies×4 choice combinations×10 replicates=total of 2,000 flies). Semi-field cage data were analyzed using paired t-tests to determine differences between the number of eggs laid and adults that emerged from treated berries compared to control berries, and survival data were analyzed using two-way analysis of variance (ANOVA) (R statistical software version 4.1.1; R Development Core Team, Vienna, Austria). […]

| SMILES | emission rate (mean±SE) [1] [mg/day] | deterrence index (DI) based on number of eggs laid (Drosophila suzukii) | fewer flies (adult progeny) emerging from treated berries than from control berries (Drosophila suzukii; berries incubated two weeks) [%] | fewer eggs laid in treated berries than in control berries (Drosophila suzukii) [%] | difference in adult emergence between untreated and treated berries (Drosophila suzukii; berries incubated two weeks) |
| --- | --- | --- | --- | --- | --- |
| CCCC(=O)OCC [ethyl butanoate] | 697.97 ± 7.96 | performed similarly and were significantly different from the control | 59 | 54 |  |
| C/C=C/C(=O)OCC [ethyl (E)-but-2-enoate] | 679.23 ± 17.73 | performed similarly and were significantly different from the control | 78 | 75 |  |
| CCCCCc1ccco1 [2-pentylfuran, reference compound] | 559.73 ± 23.54 | performed similarly and were significantly different from the control |  | 67 | nonsignificant |
